pIC50: −log10 of the molar value. Calls of active or inactive are those of the source. The calls are words filed in the database; no cut-off is given here.
Experiments:
[1] = system: Huh-7; test: Cytotoxicity against human Huh-7 cells assessed as reduction in cell viability at 3 to 400 uM incubated for 48 hrs by MTS assay; format: toxicity, cell-based; conditions: huh-7, 48 h, dose 3-400 µM
[2] = system: SARS-CoV-2; test: Antiviral activity against SARS-CoV-2 infected in African green monkey Vero E6 cells assessed as reduction in viral replication incubated for 48 hrs by Alexa Fluor 488 staining based flow cytometric analysis; format: functional, organism-based, Severe acute respiratory syndrome coronavirus 2; conditions: for IC50: vero e6; for pIC50: Severe acute respiratory syndrome coronavirus 2, Vero C1008, 48 h, read-out: IC50
[3] = Cytotoxicity against human Huh-7 cells assessed as reduction in cell viability incubated for 48 hrs by MTS assay; format: toxicity, cell-based
[4] = Cytotoxicity against African green monkey Vero E6 cells assessed as reduction in cell viability incubated for 48 hrs by MTS assay; format: toxicity, cell-based, Vero C1008; conditions: chlorocebus sabaeus
[5] = system: Zika virus; test: Antiviral activity against ZIKV expressing GFP infected in African green monkey Vero E6 cells assessed as reduction in viral replication incubated for 24 hrs by flow cytometric analysis; format: functional, organism-based; conditions: for IC50: vero e6; for pIC50: Zika virus, Vero C1008, 24 h, read-out: IC50
[6] = system: Human coronavirus 229E; test: Antiviral activity against Human coronavirus 229E expressing luciferase reporter gene infected in Huh-7 cells assessed as reduction in viral replication incubated for 24 hrs by renilla luciferase based luminometer assay; format: functional, organism-based; conditions: for pIC50: Huh-7, 24 h
[7] = Selectivity index, ratio of CC50 for cytotoxicity against human Huh-7 cells to IC50 for antiviral activity against Human coronavirus 229E expressing luciferase reporter gene infected in Huh-7 cells; format: toxicity, cell-based; conditions: read-out: Ratio CC50/IC50
[8] = system: Zika virus; test: Antiviral activity against ZIKV expressing GFP infected in African green monkey Vero E6 cells assessed as reduction in viral replication preincubated for 2 hrs followed by compound wash out and measured after 22 hrs by flow cytometric analysis; format: functional, organism-based; conditions: time 24.0 hrs
[9] = Selectivity index, ratio of CC50 for cytotoxicity against African green monkey Vero E6 cells to IC50 for antiviral activity against ZIKV expressing GFP infected in African green monkey Vero E6 cells; format: toxicity, cell-based; conditions: read-out: Ratio CC50/IC50
[10] = Selectivity index, ratio of CC50 for cytotoxicity against African green monkey Vero E6 cells to IC50 for antiviral activity against SARS-CoV-2 infected in African green monkey Vero E6 cells; format: toxicity, cell-based; conditions: read-out: Ratio CC50/IC50
[11] = system: Zika virus; test: Antiviral activity against ZIKV expressing GFP infected in African green monkey Vero E6 cells assessed as reduction in viral replication preincubated for 2 hrs without compound followed by compound addition and measured after 22 hrs by flow cytometric analysis; format: functional, organism-based
[12] = system: Zika virus; test: Antiviral activity against ZIKV expressing GFP infected in African green monkey Vero E6 cells assessed as reduction in viral replication preincubated for 2 hrs followed by dilution to sub-therapeutic level and measured after 24 hrs by flow cytometric analysis; format: functional, organism-based; conditions: time 26.0 hrs
[13] = Cytotoxicity against human Huh-7 cells assessed as maximum non-toxic concentration at incubated for 48 hrs by MTS assay; format: toxicity, cell-based; conditions: read-out: MNTD>90
[14] = system: Human coronavirus 229E; test: Antiviral activity against Human coronavirus 229E expressing luciferase reporter gene infected in Huh-7 cells assessed as reduction in viral replication at 6 uM incubated for 24 hrs by renilla luciferase based luminometer assay relative to control; format: functional; set-up: scale not given: the % may be the effect or the level left
[15] = system: Zika virus; test: Antiviral activity against ZIKV expressing GFP infected in African green monkey Vero E6 cells assessed as reduction in viral replication at 20 uM incubated for 24 hrs by flow cytometric analysis relative to control; format: functional; set-up: scale not given: the % may be the effect or the level left

SMILES | Activity [1] | IC50 [2] | CC50 at 48 h [3] | CC50 at 48 h [4] | IC50 [5] | pIC50 [6] | selectivity ratio [7] | Activity [8] | selectivity ratio [9] | selectivity ratio [10] | pIC50 [2] | Activity [11] | pIC50 [5] | Activity [12] | MNTC at 48 h [13] | Activity [14] | Activity [6] | Activity [15]
CC1(C)CCC[C@@]2(C)[C@H]1CC[C@]13COC4(CC(=O)O[C@H]4O)[C@H](C[C@@H]12)O3 (stereo not given in full) | Non-Toxic | Not Active | 435 µM | > 200 µM | Not Active | < 4.00 | – | – | – | – | – | – | – | – | – | – | – | –
CC1(C)CCC[C@@]2(C)[C@H]1CC[C@]1(CO)O[C@H](C3=CC(=O)OC3O)C[C@@H]12 (stereo not given in full) | Toxic | – | 172 µM | 200 µM | – | 4.60 | 6.8 | Active | 2.6 | 3.2 | 5.20 | Active | 4.12 | inactive | – | – | – | –
CC1(C)CCC[C@@]2(C)[C@H]1CC[C@@]1(CO)O[C@H](C3=CC(=O)OC3O)C[C@@H]12 (stereo not given in full) | Toxic | Not Active | 46.9 µM | 88.3 µM | – | 4.80 | 3 | Active | 2.8 | – | – | Active | 4.50 | inactive | 6 µM | – | – | –
CC(=O)OC[C@@]12CC[C@H]3C(C)(C)CCC[C@]3(C)[C@H]1C[C@@H](C1=CC(=O)OC1O)O2 (stereo not given in full) | Toxic | Not Active | 14 µM | 55.9 µM | – | 5.64 | 6.2 | Active | 3.8 | – | – | Active | 4.83 | inactive | 30 µM | 80% | Dose-Dependent Effect | >90%
CC1(C)CCC[C@@]2(C)[C@H]1CC[C@]13CO[C@@H]4OC(=O)C=C4[C@H](C[C@@H]12)O3 | Toxic | – | 215 µM | > 200 µM | Not Active | 4.23 | 3.7 | – | – | 2.1 | 4.03 | – | – | – | – | – | – | –
CC1(C)CCC[C@@]2(C)[C@H]1CC[C@]1(O)COC(O)([C@@H](O)CC(=O)O)C[C@@H]12 (stereo not given in full) | Toxic | Not Active | 223 µM | > 200 µM | Not Active | < 4.00 | – | – | – | – | – | – | – | – | – | – | – | –
CCC(CC)COC(=O)[C@H](C)N[P@](=O)(OC[C@H]1O[C@@](C#N)(c2ccc3c(N)ncnn23)[C@H](O)[C@@H]1O)Oc1ccccc1 [REMDESIVIR] | – | – | 90 µM | > 100 µM | – | 7.40 | 2250 | – | – | 4 | 4.60 | – | – | – | – | – | – | –

— ChEMBL document CHEMBL5584292, “Targeted Isolation of Antiviral Labdane Diterpenes from the Bark of Neo-uvaria foetida (Annonaceae) using LC-MS/MS-Based Molecular Networking” (J Nat Prod, 2024)
